# Key:
# [1] = target: T1, METTL3-14 complex (Homo sapiens, UniProt Q86U44); assay: Mass spectrometry based METTL3-14 enzyme based assay (m^6A level of single strand RNA substrate); assay type: biochemical; details: read-out: IC50, METTL3-14 inhibition, mass spectrometric enzyme based assay
# T1 construct: genes encoding the full-length and MTase domain of human METTL3; METTL3-14 FL: full length of METTL3-14; 10x His (thrombin-cleavable) (cleaved yes); made in house; host or cells: Trichoplusia ni (Hi5) cells co-infected with two baculoviruses (virus made in Sf9)
# T1 sequence (Q86U44 whole entry, the tested form may be a part): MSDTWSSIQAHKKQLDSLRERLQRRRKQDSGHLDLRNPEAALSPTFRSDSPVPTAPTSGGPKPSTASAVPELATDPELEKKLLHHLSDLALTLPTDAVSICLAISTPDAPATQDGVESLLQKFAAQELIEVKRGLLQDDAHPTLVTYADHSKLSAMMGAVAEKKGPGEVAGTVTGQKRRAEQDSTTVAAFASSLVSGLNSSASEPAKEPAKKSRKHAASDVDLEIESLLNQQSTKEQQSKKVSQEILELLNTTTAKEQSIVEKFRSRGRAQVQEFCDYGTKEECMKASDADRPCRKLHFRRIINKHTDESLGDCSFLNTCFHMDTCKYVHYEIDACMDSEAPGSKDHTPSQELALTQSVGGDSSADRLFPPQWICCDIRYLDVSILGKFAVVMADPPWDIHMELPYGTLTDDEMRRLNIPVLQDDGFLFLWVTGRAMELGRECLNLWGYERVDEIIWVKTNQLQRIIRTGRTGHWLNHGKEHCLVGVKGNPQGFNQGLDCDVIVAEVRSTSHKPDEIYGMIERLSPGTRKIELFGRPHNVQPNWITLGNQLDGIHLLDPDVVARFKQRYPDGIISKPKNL
# T1 sequence (Q9HCE5 whole entry partner, the tested form may be a part): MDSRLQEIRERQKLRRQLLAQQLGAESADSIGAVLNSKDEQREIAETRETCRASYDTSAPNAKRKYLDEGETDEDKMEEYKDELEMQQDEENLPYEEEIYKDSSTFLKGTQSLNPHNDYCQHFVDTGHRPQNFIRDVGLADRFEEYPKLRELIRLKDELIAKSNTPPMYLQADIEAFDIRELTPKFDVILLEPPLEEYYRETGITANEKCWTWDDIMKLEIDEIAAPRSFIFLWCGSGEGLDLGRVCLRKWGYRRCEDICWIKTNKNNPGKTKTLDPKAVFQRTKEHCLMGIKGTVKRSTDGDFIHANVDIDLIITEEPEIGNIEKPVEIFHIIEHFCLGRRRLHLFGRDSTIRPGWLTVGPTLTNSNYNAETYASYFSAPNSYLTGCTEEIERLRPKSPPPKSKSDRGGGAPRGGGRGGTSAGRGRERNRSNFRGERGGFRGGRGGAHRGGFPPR
# Procedure: The 30 nM of METTL3-14 was incubated with 300 nM of SAM, 300 nM of RNA substrates, and serially diluted compounds at 23 °C for 1 h as described above. The enzymatic reaction was stopped by heating at 80 °C for 10 min and centrifuged at 15,000× g for 10 min. Then, the reacted RNA in the supernatant was digested to nucleosides by using 2 units of nuclease P1 (NEB, Ipswich, MA, USA) and dephosphorylated by using 1 unit of alkaline phosphatase (NEB) at 37 °C for 2 h.
# The produced nucleosides were detected by reversed-phase high-performance liquid chromatography on an ACQUITY BEH C18 column ([…], 2.1 mm × 50 mm; Waters) coupled with mass spectrometry detection using an EVOQ Elite ER LC-TQ (Bruker, Billerica, MA, USA). The adenosine and m^6A were quantified using an MRM transition as follows: m/z = 267.9 -> 136.1 and m/z = 282.1 -> 150.1, respectively. (Retention time 5 min). The m^6A/A nucleoside ratio of the eltrombopag-treated sample was normalized to the corresponding value of the DMSO treated negative control. The IC50 values were calculated by a nonlinear regression analysis using OriginPro 9.1 software (OriginLab).
# [2] = target: T2, DOT1L (Homo sapiens, UniProt Q8TEK3); assay: Methyltransferase selectivity panel (MT HotSpot radioisotope assay), DOT1L; assay type: biochemical; details: 10 μM eltrombopag, DOT1L
# T2 construct: purchased Reaction Biology (Malvern, PA, USA), contract assay
# T2 sequence (Q8TEK3 whole entry): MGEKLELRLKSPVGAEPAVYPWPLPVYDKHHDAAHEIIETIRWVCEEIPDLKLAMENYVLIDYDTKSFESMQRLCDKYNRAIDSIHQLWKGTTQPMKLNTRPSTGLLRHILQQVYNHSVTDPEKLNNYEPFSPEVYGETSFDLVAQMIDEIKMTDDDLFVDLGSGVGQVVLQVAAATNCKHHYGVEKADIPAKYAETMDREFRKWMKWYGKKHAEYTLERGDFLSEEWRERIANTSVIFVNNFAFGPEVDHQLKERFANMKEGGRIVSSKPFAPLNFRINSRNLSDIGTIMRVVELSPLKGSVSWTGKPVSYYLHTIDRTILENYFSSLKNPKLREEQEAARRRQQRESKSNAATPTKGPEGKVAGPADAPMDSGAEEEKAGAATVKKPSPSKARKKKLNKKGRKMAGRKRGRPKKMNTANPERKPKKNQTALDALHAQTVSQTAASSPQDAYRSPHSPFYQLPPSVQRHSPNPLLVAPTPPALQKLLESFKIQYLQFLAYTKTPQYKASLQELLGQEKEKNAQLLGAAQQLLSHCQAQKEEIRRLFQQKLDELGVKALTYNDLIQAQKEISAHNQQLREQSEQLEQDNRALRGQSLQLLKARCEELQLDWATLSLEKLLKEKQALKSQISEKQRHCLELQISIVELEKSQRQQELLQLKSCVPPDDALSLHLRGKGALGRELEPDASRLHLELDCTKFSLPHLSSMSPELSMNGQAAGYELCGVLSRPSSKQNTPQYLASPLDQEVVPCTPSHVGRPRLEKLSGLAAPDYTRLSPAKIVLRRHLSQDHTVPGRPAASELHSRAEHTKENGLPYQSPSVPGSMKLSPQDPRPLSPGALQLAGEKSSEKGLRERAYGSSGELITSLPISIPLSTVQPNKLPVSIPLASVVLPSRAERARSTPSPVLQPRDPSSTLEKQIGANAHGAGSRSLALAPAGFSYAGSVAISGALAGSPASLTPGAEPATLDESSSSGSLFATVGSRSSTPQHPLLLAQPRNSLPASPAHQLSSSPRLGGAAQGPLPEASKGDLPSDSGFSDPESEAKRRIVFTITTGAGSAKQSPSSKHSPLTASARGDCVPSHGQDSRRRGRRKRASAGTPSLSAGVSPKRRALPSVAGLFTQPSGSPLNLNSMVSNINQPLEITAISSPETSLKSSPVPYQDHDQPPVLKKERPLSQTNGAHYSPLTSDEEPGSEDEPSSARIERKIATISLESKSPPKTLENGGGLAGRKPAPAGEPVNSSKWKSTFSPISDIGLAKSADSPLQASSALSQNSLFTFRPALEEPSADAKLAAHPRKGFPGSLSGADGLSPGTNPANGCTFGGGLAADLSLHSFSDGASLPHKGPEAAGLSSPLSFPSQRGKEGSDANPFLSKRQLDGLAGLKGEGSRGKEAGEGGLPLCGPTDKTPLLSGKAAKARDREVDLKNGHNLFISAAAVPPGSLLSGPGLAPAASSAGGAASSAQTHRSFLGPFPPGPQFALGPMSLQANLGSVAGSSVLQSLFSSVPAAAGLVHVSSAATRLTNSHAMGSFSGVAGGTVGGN
# Procedure: The selectivity profile of eltrombopag was investigated by testing the level of inhibition in a methyltransferase panel. The inhibition of 7 […] methyltransferase was tested at Reaction Biology (Malvern, PA, USA) using a gold standard radioisotope-based MT assay (MT HotSpot^TM) with 10 μM of eltrombopag in duplicate.
# [3] = target: T3, METTL3 (Homo sapiens, UniProt Q86U44); assay: Bioluminescence enzyme assay, single form of METTL3; assay type: biochemical; details: 1 μM METTL3, 1 μM SAM, 500 nM RNA, 5 h; read-out: IC50, single subunit enzyme form of METTL3
# T3 construct: 10x His (thrombin-cleavable); made in house; host or cells: insect cells, baculovirus (pVL1393)
# T3 sequence (Q86U44 whole entry): as the sequence (Q86U44 whole entry, the tested form may be a part) above
# Procedure: An enzymatic bioluminescence assay was established to identify the METTL3-14 inhibitor through screening. […] METTL3-14 activity was assessed by measuring the luminescence using a Victor multilabel reader (PerkinElmer, Waltham, MA, USA). The IC50 values were calculated by a nonlinear regression analysis using OriginPro 9.1 software (OriginLab).
# To confirm the mechanism of action of eltrombopag in the METTL3-14 complex, 30 nM METTL3-14 and serially diluted eltrombopag were reacted with various concentrations of SAM or RNA substrate and saturating concentrations of the other substrate (3 μM SAM or 2 μM RNA substrate) for 20 min. To evaluate the inhibitory activity in a single form of METTL3 and METTL14, 1 μM of METTL3 and 300 nM of METTL14 were incubated with 1 μM of SAM, 500 nM of RNA substrates, and serially diluted eltrombopag for 5 h. To measure the inhibitory activity in the truncated form of the METTL3-14 complex, 1 μM of the truncated METTL3-14 complex was reacted with 1 μM of SAM, 500 nM of RNA substrates, and serially diluted eltrombopag for 5 h.
# [4] = tested on: MOLM-14 cells; assay: Anti-proliferative assay (EZ-cytox), MOLM-14; assay type: cell-based; details: Homo sapiens, MOLM-14, 72 h
# Procedure: The MOLM-13, MOLM-14, HL60, MV4-11, and THP-1 cells were seeded in white 96-well clear bottomed plates with 100 μL of medium (5000 cells/well). The plated cells were treated with serially diluted compounds and incubated for 72 h at 37 °C. After incubation, 10 μL of EZ-cytox kit reagent from the EZ-cytox cell viability assay kit (DaeiLab, Seoul, Korea) was added to each well and then incubated for 3 h at 37 °C. The absorbance of metabolically active cells was measured at a wavelength of 450 nm using a Victor multilabel reader (PerkinElmer). The GI50 values were calculated by nonlinear regression analysis using OriginPro 9.1 software (OriginLab).
# [5] = tested on: m^6A methylation of MOLM-13 transcriptome; assay: m^6A-seq and sequencing data analysis (differential methylation peaks, motifs, annotation, GO enrichment); assay type: cell-based, human
# Procedure: mRNA was purified using a GenElute™ mRNA Miniprep Kit (SIGMA, MRN10-1KT, St. Louis, MO, USA) according to the manufacturer’s protocol. Briefly, the total RNA was mixed with 2× Binding Solution and oligo(dT) beads, vortexed, and left for 10 min at room temperature. The beads:mRNA complex was passed through a GenElute spin filter/collection tube and washed twice with Wash Solution. The mRNA was eluted in an Elution Solution incubated at 70 °C.
# m^6A-seq was performed using the EpiMark® N^6-Methyladenosine Enrichment Kit (NEB, E1610S). Briefly, 25 μL of Dynabeads™ Protein G (Invitrogen, 10004D) and 1 μL of N^6-Methyladenosine Antibody were incubated in a 4 °C rotator for 2 h. The purified mRNA was fragmented at 95 °C for 10 min in a fragmentation buffer (100 mM Tris (pH 8.0), 8 mM MgCl2) with spike-in control RNA (m^6A and unmodified, 0.1 fmol of each RNA). The fragmented RNA was concentrated with RNA Clean & Concentrator™-5 (ZYMO […], R1014, Irvine, CA, USA) and then 5% was saved as the input. The remaining 95% of the fragmented RNA was added to the beads/antibody complex. RNA was eluted in Buffer RLT (QIAGEN, 79216, Hilden, Germany), followed by ethanol precipitation and was used for sequencing library construction. All sequencing experiments were performed in triplicate via Novaseq. Adapter trimming and QC were performed using Trim Galore. Reads were mapped to hg38 by HISAT2 [56], and exomePeak and HOMER [58] were used to analyze the differential methylation peaks, motifs, and gene annotations.
# [6] = set-up: method as in PMID 34225039; details: cited from earlier work
# [7] = set-up: method as in PMID 30305280, PMID 30002802; details: cited from earlier work
structure (smiles),measurement,setting,value
CC1=NN(c2ccc(C)c(C)c2)C(=O)/C1=N\Nc1cccc(-c2cccc(C(=O)O)c2)c1O [Eltrombopag],IC50,[1],4.55 µM
same,remaining activity at 10 µM,[2],90 ± 2.8%
same,IC50,[3],7.04 µM
same,GI50,[4],10.4 ± 0.7 µM
same,number of differential m^6A methylation sites,"[5]; MOLM-13, 25 μM eltrombopag","10,723"
same,share of differential m^6A sites hypomethylated,"[5]; MOLM-13, 25 μM eltrombopag",71%
same,share of hypermethylation,"[5]; MOLM-13, 25 μM eltrombopag",about 30%
same,share of hypomethylated genes that are noncoding-RNA (ncRNA),[5]; eltrombopag-treated MOLM-13,17%
same,share of hypomethylated genes that are protein-coding,[5]; eltrombopag-treated MOLM-13,~ 80%
same,share of hypomethylated genes that are pseudogenes,[5]; eltrombopag-treated MOLM-13,3%
same,water solubility,[6],low
same,"safety in clinical studies, combination with azacitidine",[7]; combination with azacitidine compared with azacitidine alone,increased progression to acute myeloid leukemia
same,"safety in clinical studies, monotherapy",[7]; monotherapy,didn’t show any safety concerns

# — article PMC9032718, “Eltrombopag as an Allosteric Inhibitor of the METTL3-14 Complex Affecting the m^6A Methylation of RNA in Acute Myeloid Leukemia Cells” (Pharmaceuticals, 2022)
